How the values were obtained:
weeds [1] = assay: Glasshouse weed control by HST/HPPD (mesotrione) mixtures, post-emergence; format: in vivo; conditions: post-emergence; for % damage, 1 g ai ha^−1 mesotrione / % damage, no-mesotrione: 14 DAT; for colby: difference to Colby expectation
Procedure: (§1) Weed seeds are planted out in trays containing suitable soil (for example 50% peat, 50% John Innes soil no 3) and grown in the glass house conditions under 24-27° C. day; 18-21° C. night and approximately a 14 h (or longer in UK summer) photoperiod. Humidity is ˜65% and light levels up to 2000 μmol/m^2 at bench level. Trays are sprayed with test chemicals dissolved in water with 0.2-0.25% X-77 surfactant and sprayed from a boom on a suitable track sprayer moving at about 2 mph in a suitable track sprayer (for example a DeVries spray chamber with the nozzle about 2 inches from the plant tops). Spray volume is suitably 500-1000 l/ha. Sprays are carried out both pre-emergence and over small plants at about 7-12 d post-emergence
(§2) Plants are assessed 14 DAT and herbicidal damage is scored on a scale from 0 to 100%. The HST inhibitor compound 2.30 (designated compound A in table 16 and 17), haloxydine (compound 1.1) and compound 2.13 (designated compound AE in tables 16 and 17) are sprayed at rates between 0 and 500 g/ha.

weeds [2] = assay: Glasshouse weed control by HST/HPPD (mesotrione) mixtures, pre-emergence; format: in vivo; conditions: for colby: Colby synergy score; for % Damage at 14 DAA, 1 g ai ha^−1 mesotrione / % Damage at 14 DAA, no-mesotrione: N = 3
Procedure: as §1, §2

[3] = ALOMY, 16 g/ha + 1 g ai/ha mesotrione
[4] = ALOMY, 31 g/ha + 1 g ai/ha mesotrione
[5] = ALOMY, 63 g/ha + 1 g ai/ha mesotrione
[6] = ALOMY, 125 g/ha + 1 g ai/ha mesotrione
[7] = ALOMY, 250 g/ha + 1 g ai/ha mesotrione
[8] = ALOMY, 500 g/ha + 1 g ai/ha mesotrione
[9] = ECHCG, 16 g/ha + 1 g ai/ha mesotrione
[10] = ECHCG, 31 g/ha + 1 g ai/ha mesotrione
[11] = ECHCG, 63 g/ha + 1 g ai/ha mesotrione
[12] = ECHCG, 125 g/ha + 1 g ai/ha mesotrione
[13] = ECHCG, 250 g/ha + 1 g ai/ha mesotrione
[14] = ECHCG, 500 g/ha + 1 g ai/ha mesotrione
[15] = SETFA, 16 g/ha + 1 g ai/ha mesotrione
[16] = SETFA, 31 g/ha + 1 g ai/ha mesotrione
[17] = SETFA, 63 g/ha + 1 g ai/ha mesotrione
[18] = SETFA, 125 g/ha + 1 g ai/ha mesotrione
[19] = SETFA, 250 g/ha + 1 g ai/ha mesotrione
[20] = SETFA, 500 g/ha + 1 g ai/ha mesotrione
[21] = ALOMY, 16 g/ha + mesotrione 1 g ai/ha
[22] = ALOMY, 31 g/ha + mesotrione 1 g ai/ha
[23] = ALOMY, 63 g/ha + mesotrione 1 g ai/ha
[24] = ALOMY, 125 g/ha + mesotrione 1 g ai/ha
[25] = ALOMY, 250 g/ha + mesotrione 1 g ai/ha
[26] = ALOMY, 500 g/ha + mesotrione 1 g ai/ha
[27] = AMARE, 16 g/ha + mesotrione 1 g ai/ha
[28] = AMARE, 31 g/ha + mesotrione 1 g ai/ha
[29] = AMARE, 63 g/ha + mesotrione 1 g ai/ha

O=c1c(-c2c(F)ccc(F)c2Cl)c(O)c2cccnc2n1CC(F)F [Compound 2.13]
% damage, 1 g ai ha^−1 mesotrione (weeds [1]; [3]): 0% | colby (weeds [1]; [3]): 0 | % damage, no-mesotrione (weeds [1]; ALOMY, 16 g/ha): 0% | % damage, 1 g ai ha^−1 mesotrione (weeds [1]; [4]): 2% | colby (weeds [1]; [4]): 2 | % damage, no-mesotrione (weeds [1]; ALOMY, 31 g/ha): 0% | % damage, 1 g ai ha^−1 mesotrione (weeds [1]; [5]): 3% | colby (weeds [1]; [5]): 3 | % damage, no-mesotrione (weeds [1]; ALOMY, 63 g/ha): 0% | % damage, 1 g ai ha^−1 mesotrione (weeds [1]; [6]): 0% | colby (weeds [1]; [6]): 0 | % damage, no-mesotrione (weeds [1]; ALOMY, 125 g/ha): 0% | % damage, 1 g ai ha^−1 mesotrione (weeds [1]; [7]): 3% | colby (weeds [1]; [7]): 2 | % damage, no-mesotrione (weeds [1]; ALOMY, 250 g/ha): 2% | % damage, 1 g ai ha^−1 mesotrione (weeds [1]; [8]): 5% | colby (weeds [1]; [8]): −2 | % damage, no-mesotrione (weeds [1]; ALOMY, 500 g/ha): 7% | % damage, 1 g ai ha^−1 mesotrione (weeds [1]; [9]): 5% | colby (weeds [1]; [9]): −3 | % damage, no-mesotrione (weeds [1]; ECHCG, 16 g/ha): 0% | % damage, 1 g ai ha^−1 mesotrione (weeds [1]; [10]): 5% | colby (weeds [1]; [10]): −3 | % damage, no-mesotrione (weeds [1]; ECHCG, 31 g/ha): 0% | % damage, 1 g ai ha^−1 mesotrione (weeds [1]; [11]): 8% | colby (weeds [1]; [11]): 0 | % damage, no-mesotrione (weeds [1]; ECHCG, 63 g/ha): 0% | % damage, 1 g ai ha^−1 mesotrione (weeds [1]; [12]): 15% | colby (weeds [1]; [12]): 7 | % damage, no-mesotrione (weeds [1]; ECHCG, 125 g/ha): 0% | % damage, 1 g ai ha^−1 mesotrione (weeds [1]; [13]): 22% | colby (weeds [1]; [13]): 13 | % damage, no-mesotrione (weeds [1]; ECHCG, 250 g/ha): 0% | % damage, 1 g ai ha^−1 mesotrione (weeds [1]; [14]): 20% | colby (weeds [1]; [14]): 12 | % damage, no-mesotrione (weeds [1]; ECHCG, 500 g/ha): 0% | % damage, 1 g ai ha^−1 mesotrione (weeds [1]; [15]): 0% | colby (weeds [1]; [15]): 0 | % damage, no-mesotrione (weeds [1]; SETFA, 16 g/ha): 0% | % damage, 1 g ai ha^−1 mesotrione (weeds [1]; [16]): 0% | colby (weeds [1]; [16]): 0 | % damage, no-mesotrione (weeds [1]; SETFA, 31 g/ha): 0% | % damage, 1 g ai ha^−1 mesotrione (weeds [1]; [17]): 0% | colby (weeds [1]; [17]): 0 | % damage, no-mesotrione (weeds [1]; SETFA, 63 g/ha): 0% | % damage, 1 g ai ha^−1 mesotrione (weeds [1]; [18]): 0% | colby (weeds [1]; [18]): 0 | % damage, no-mesotrione (weeds [1]; SETFA, 125 g/ha): 0% | % damage, 1 g ai ha^−1 mesotrione (weeds [1]; [19]): 0% | colby (weeds [1]; [19]): 0 | % damage, no-mesotrione (weeds [1]; SETFA, 250 g/ha): 0% | % damage, 1 g ai ha^−1 mesotrione (weeds [1]; [20]): 0% | colby (weeds [1]; [20]): 0 | % damage, no-mesotrione (weeds [1]; SETFA, 500 g/ha): 0% | colby (weeds [2]; [21]): 0% | % Damage at 14 DAA, 1 g ai ha^−1 mesotrione (weeds [2]; [21]): 0% | % Damage at 14 DAA, no-mesotrione (weeds [2]; ALOMY, 16 g/ha): 0% | colby (weeds [2]; [22]): 0% | % Damage at 14 DAA, 1 g ai ha^−1 mesotrione (weeds [2]; [22]): 0% | % Damage at 14 DAA, no-mesotrione (weeds [2]; ALOMY, 31 g/ha): 0% | colby (weeds [2]; [23]): 0% | % Damage at 14 DAA, 1 g ai ha^−1 mesotrione (weeds [2]; [23]): 0% | % Damage at 14 DAA, no-mesotrione (weeds [2]; ALOMY, 63 g/ha): 0% | colby (weeds [2]; [24]): 0% | % Damage at 14 DAA, 1 g ai ha^−1 mesotrione (weeds [2]; [24]): 0% | % Damage at 14 DAA, no-mesotrione (weeds [2]; ALOMY, 125 g/ha): 0% | colby (weeds [2]; [25]): 0% | % Damage at 14 DAA, 1 g ai ha^−1 mesotrione (weeds [2]; [25]): 0% | % Damage at 14 DAA, no-mesotrione (weeds [2]; ALOMY, 250 g/ha): 0% | colby (weeds [2]; [26]): −1% | % Damage at 14 DAA, 1 g ai ha^−1 mesotrione (weeds [2]; [26]): 0% | % Damage at 14 DAA, no-mesotrione (weeds [2]; ALOMY, 500 g/ha): 2% | colby (weeds [2]; [27]): 5% | % Damage at 14 DAA, 1 g ai ha^−1 mesotrione (weeds [2]; [27]): 7% | % Damage at 14 DAA, no-mesotrione (weeds [2]; AMARE, 16 g/ha): 0% | colby (weeds [2]; [28]): 13% | % Damage at 14 DAA, 1 g ai ha^−1 mesotrione (weeds [2]; [28]): 23% | % Damage at 14 DAA, no-mesotrione (weeds [2]; AMARE, 31 g/ha): 8% | colby (weeds [2]; [29]): 4% | % Damage at 14 DAA, 1 g ai ha^−1 mesotrione (weeds [2]; [29]): 33% | % Damage at 14 DAA, no-mesotrione (weeds [2]; AMARE, 63 g/ha): 28%

Source: US20110173718A1, “HERBICIDE TOLERANT PLANTS” (SYNGENTA CROP PROTECTION, INC., priority 2008, published 2011)
